Assay results as given in ChEMBL document CHEMBL1130562, “Potent and selective inhibitors of the Abl-kinase: phenylamino-pyrimidine (PAP) derivatives” (Bioorg Med Chem Lett, 1997).

What was measured:
[1] = molecular target: Platelet-derived growth factor receptor (Homo sapiens, UniProt P09619+P16234); assay: Inhibition of the platelet-derived growth factor receptor.
[2] = molecular target: Protein kinase C alpha type (Homo sapiens, UniProt P17252); assay: Inhibition of protein kinase C alpha.
[3] = molecular target: Proto-oncogene tyrosine-protein kinase Src (Homo sapiens, UniProt P12931)
Description: Inhibition of c-Src-tyrosine kinase.

[4] = molecular target: Epidermal growth factor receptor (Homo sapiens, UniProt P00533)
Description: Inhibition of the epidermal growth factor receptor.

[5] = molecular target: Tyrosine-protein kinase ABL1 (Homo sapiens, UniProt P00519)
Description: Inhibition of v-Abl tyrosine kinase.

[6] = molecular target: cAMP-dependent protein kinase (PKA) (Homo sapiens, UniProt P22694+P17612+P22612); assay: Inhibition of protein kinase A.; assay type: protein assay, unidentified
[7] = molecular target: Protein kinase C delta type (Homo sapiens, UniProt Q05655); assay: Inhibition of protein kinase C delta.
[8] = Dissociation constant pKa was determined; assay type: physicochemical

Epidermal growth factor receptor, sequence (P00533 whole entry): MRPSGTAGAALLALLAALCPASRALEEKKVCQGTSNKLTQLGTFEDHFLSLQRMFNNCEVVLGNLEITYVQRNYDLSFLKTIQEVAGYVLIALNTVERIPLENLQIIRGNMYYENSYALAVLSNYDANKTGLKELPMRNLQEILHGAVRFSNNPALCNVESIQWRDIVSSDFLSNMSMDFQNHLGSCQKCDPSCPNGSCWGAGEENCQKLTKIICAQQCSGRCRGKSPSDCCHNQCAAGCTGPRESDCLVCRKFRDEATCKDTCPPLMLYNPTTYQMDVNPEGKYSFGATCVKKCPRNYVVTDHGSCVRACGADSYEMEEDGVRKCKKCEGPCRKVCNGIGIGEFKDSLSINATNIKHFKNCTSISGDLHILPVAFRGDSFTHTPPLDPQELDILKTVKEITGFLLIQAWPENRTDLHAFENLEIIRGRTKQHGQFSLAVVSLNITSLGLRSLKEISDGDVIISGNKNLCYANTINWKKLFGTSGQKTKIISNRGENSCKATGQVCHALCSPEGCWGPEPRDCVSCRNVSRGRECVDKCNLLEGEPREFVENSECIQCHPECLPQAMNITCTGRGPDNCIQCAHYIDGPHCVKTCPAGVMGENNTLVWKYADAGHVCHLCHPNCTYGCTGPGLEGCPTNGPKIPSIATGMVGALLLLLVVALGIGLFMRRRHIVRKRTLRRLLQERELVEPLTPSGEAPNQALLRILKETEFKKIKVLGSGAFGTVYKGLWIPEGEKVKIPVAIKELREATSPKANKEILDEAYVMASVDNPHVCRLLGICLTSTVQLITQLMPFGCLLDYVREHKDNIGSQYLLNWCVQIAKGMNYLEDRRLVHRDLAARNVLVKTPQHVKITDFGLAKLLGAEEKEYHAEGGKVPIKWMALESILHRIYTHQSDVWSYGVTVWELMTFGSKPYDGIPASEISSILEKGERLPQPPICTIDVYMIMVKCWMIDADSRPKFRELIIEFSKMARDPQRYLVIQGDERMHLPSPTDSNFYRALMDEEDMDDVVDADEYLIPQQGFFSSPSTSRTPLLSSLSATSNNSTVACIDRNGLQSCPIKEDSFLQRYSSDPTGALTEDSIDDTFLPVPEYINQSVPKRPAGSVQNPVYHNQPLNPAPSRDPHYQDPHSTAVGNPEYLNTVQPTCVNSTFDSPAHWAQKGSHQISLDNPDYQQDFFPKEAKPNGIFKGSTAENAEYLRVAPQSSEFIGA
Protein kinase C delta type, sequence (Q05655 whole entry): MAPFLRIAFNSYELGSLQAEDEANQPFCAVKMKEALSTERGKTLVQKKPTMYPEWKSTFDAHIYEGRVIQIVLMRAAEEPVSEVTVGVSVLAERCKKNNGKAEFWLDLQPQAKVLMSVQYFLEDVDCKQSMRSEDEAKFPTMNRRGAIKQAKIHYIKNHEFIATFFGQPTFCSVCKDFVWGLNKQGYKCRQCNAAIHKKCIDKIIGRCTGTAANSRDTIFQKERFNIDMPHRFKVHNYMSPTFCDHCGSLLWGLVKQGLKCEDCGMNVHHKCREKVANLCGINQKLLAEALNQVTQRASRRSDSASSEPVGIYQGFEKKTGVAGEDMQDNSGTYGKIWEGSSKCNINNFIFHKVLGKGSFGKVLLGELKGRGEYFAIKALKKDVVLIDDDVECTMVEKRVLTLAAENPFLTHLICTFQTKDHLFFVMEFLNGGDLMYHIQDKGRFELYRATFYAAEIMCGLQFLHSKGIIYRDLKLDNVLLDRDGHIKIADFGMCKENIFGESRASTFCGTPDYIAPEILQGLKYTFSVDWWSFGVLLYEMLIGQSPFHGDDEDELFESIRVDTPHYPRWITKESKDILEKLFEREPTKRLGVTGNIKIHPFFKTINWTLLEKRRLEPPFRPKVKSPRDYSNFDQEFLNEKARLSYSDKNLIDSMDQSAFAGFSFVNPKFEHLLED
Tyrosine-protein kinase ABL1, sequence (P00519 whole entry, looked up): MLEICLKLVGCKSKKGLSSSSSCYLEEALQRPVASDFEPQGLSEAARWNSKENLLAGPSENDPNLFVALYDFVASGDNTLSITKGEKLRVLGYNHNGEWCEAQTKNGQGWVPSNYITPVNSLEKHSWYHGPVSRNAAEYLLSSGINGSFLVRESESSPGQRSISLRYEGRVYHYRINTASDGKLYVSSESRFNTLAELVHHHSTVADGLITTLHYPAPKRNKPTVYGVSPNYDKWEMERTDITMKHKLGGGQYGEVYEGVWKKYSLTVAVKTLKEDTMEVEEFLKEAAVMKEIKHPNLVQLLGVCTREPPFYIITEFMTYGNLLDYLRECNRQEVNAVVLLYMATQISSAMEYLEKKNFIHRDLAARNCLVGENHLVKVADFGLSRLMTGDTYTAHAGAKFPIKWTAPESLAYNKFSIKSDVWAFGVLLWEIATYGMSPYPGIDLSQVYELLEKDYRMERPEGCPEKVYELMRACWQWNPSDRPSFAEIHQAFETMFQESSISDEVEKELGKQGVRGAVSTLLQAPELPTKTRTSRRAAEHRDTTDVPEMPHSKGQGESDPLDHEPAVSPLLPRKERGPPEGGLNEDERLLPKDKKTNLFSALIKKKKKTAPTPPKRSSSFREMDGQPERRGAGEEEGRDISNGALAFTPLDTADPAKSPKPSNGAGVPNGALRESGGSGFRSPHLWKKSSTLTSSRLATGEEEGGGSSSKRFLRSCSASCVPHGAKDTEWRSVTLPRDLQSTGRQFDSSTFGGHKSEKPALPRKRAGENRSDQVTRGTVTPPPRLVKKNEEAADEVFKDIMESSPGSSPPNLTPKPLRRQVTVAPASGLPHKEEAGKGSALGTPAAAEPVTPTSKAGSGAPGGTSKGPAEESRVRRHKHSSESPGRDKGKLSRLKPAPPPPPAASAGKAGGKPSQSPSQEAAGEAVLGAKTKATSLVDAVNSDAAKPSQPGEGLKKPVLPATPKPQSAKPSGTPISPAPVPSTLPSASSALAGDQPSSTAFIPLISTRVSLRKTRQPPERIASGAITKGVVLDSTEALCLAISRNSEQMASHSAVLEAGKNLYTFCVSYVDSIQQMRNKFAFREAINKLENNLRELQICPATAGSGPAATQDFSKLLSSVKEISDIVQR
Proto-oncogene tyrosine-protein kinase Src, sequence (P12931 2-536 limits assumed): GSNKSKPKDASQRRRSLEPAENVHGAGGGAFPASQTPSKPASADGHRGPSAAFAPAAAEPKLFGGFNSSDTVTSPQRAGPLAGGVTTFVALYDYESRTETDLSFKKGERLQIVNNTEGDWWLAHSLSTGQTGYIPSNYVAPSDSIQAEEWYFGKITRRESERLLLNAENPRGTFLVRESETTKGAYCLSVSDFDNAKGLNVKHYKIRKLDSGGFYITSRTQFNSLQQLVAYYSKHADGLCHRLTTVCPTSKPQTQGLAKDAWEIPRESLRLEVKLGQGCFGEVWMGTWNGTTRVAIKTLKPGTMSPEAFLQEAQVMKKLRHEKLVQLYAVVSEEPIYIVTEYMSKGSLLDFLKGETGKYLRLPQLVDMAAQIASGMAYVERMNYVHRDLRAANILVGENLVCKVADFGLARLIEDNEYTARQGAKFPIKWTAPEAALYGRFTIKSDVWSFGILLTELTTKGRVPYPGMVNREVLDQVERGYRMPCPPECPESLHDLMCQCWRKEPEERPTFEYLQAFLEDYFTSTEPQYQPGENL

SMILES | IC50 [1] [µM] | IC50 [2] [µM] | IC50 [3] [µM] | IC50 [4] [µM] | IC50 [5] [µM] | IC50 [6] [µM] | IC50 [7] [µM] | pKa [8]
COc1ccccc1C(=O)Nc1cccc(Nc2nccc(-c3cccnc3)n2)c1 | 1 | 0.32 | > 100 | 100 | 1.9 | > 500 | > 500 | –
O=[N+]([O-])c1cccc(Nc2nccc(-c3ccncc3)n2)c1 | > 100 | 2.6 | > 100 | > 100 | 61 | > 500 | > 500 | –
CC(=O)Nc1ccc(C)c(Nc2nccc(-c3cccnc3)n2)c1 | – | 500 | – | – | 5.8 | > 500 | – | –
FC(F)C(F)(F)Oc1cccc(Nc2nccc(-c3ccncc3)n2)c1 | > 10 | 0.3 | > 100 | > 100 | > 100 | > 500 | > 100 | –
FC(F)C(F)(F)Oc1cccc(Nc2nccc(-c3c[nH]c4ccccc34)n2)c1 | > 10 | 0.29 | 2.2 | 1.8 | 0.37 | 73 | 1.4 | –
Cc1ccc(NC(=O)c2ccccc2)cc1Nc1nccc(-c2cccnc2)n1 | – | – | – | – | 0.4 | > 500 | – | –
Nc1cccc(Nc2nccc(-c3cccnc3)n2)c1 | > 100 | 210 | 14 | – | 0.7 | 6 | > 500 | –
Nc1cccc(Nc2nccc(-c3ccncc3)n2)c1 | > 10 | – | 16 | – | 0.6 | – | – | –
O=C(Nc1cccc(Nc2nccc(-c3cccnc3)n2)c1)c1cccs1 | 20 | – | 3 | > 50 | 0.3 | > 500 | – | –
Cc1ccc(C(=O)Nc2ccc(C)c(Nc3nccc(-c4cccnc4)n3)c2)cc1 | – | – | – | – | – | > 100 | – | –
c1cc(Nc2nccc(-c3cccnc3)n2)cc(OCCn2ccnc2)c1 | > 10 | 1.5 | 4.9 | 7.1 | 1 | 340 | 34 | –
NCCCNC(=O)c1cccc(Nc2nccc(-c3cccnc3)n2)c1 | > 10 | – | 9.8 | – | 0.4 | – | – | –
O=C(Nc1cccc(Nc2nccc(-c3cccnc3)n2)c1)c1ccccn1 | > 100 | – | 90 | – | 3.8 | > 500 | – | –
COC(=O)c1cccc(Nc2nccc(-c3cccnc3)n2)c1 | > 10 | – | 90 | – | 5.1 | > 500 | – | –
FC(F)C(F)(F)Oc1cccc(Nc2nccc(-c3ccc(Cl)cc3)n2)c1 | > 10 | 0.85 | > 100 | > 100 | > 50 | > 500 | > 100 | –
O=C(Nc1cccc(Nc2nccc(-c3cccnc3)n2)c1)c1ccncc1 | > 100 | 1.3 | 78 | > 100 | 0.5 | > 500 | 24 | –
Cc1ccc(N)cc1Nc1nccc(-c2cccnc2)n1 | – | 240 | – | – | 1.5 | > 500 | – | –
N#Cc1ccc(C(=O)Nc2cccc(Nc3nccc(-c4cccnc4)n3)c2)cc1 | 1.5 | 0.35 | > 100 | > 100 | 1.3 | > 500 | > 500 | –

SMILES | IC50 [1] [µM] | IC50 [2] [µM] | IC50 [3] [µM] | IC50 [4] [µM] | IC50 [5] [µM] | IC50 [6] [µM] | IC50 [7] [µM] | pKa [8]
c1cncc(-c2ccnc(Nc3cccc(-n4ccnc4)c3)n2)c1 | 18 | 1 | 1.6 | > 100 | 3.3 | > 500 | 21 | –
O=[N+]([O-])c1cccc(Nc2nccc(-c3ccccn3)n2)c1 | > 100 | 2.5 | > 100 | > 100 | 1.2 | > 500 | > 500 | –
O=C(Nc1cccc(Nc2nccc(-c3cccnc3)n2)c1)c1ccc(F)cc1 | 3 | – | > 100 | > 50 | 0.2 | > 500 | – | –
O=C(Nc1cccc(Nc2nccc(-c3cccnc3)n2)c1)c1cccnc1 | 50 | 1.7 | 9 | > 100 | 0.15 | > 500 | 17 | 2.56
O=C(O)c1cccc(Nc2nccc(-c3cccnc3)n2)c1 | > 10 | 45 | 126 | – | 8 | – | > 100 | –
Cc1ccc(NC(=O)c2ccc3ccccc3c2)cc1Nc1nccc(-c2cccnc2)n1 | – | – | – | – | 0.2 | > 100 | – | –
COc1ccccc1C(=O)Nc1ccc(C)c(Nc2nccc(-c3cccnc3)n2)c1 | – | 80 | – | – | 0.8 | > 500 | > 100 | –
O=C(O)c1ccccc1C(=O)Nc1cccc(Nc2nccc(-c3cccnc3)n2)c1 | > 100 | – | 44 | – | 2 | > 500 | – | –
O=[N+]([O-])c1cccc(Nc2nccc(-c3cccnc3)n2)c1 | > 100 | 0.79 | 93 | 100 | 34 | > 500 | > 500 | –
Clc1cccc(Nc2nccc(-c3cccnc3)n2)c1 | > 10 | 1.6 | > 100 | > 100 | 1.5 | > 500 | 23 | –
Cc1ccc(NC(=O)c2ccc(Cl)cc2)cc1Nc1nccc(-c2cccnc2)n1 | – | – | – | – | 0.8 | > 100 | > 100 | –
O=C(Nc1cccc(Nc2nccc(-c3cccnc3)n2)c1)C1CCCCC1 | 0.8 | – | 46 | > 100 | 0.45 | > 500 | – | –
CCCCCC(=O)Nc1cccc(Nc2nccc(-c3cccnc3)n2)c1 | 0.6 | 2 | 3.7 | > 100 | 0.2 | – | 19 | –
O=C(Nc1cccc(Nc2nccc(-c3cccnc3)n2)c1)c1ccccc1 | – | – | – | – | 0.4 | > 500 | – | –
CN1CCN(Cc2ccc(C(=O)Nc3cccc(Nc4nccc(-c5cccnc5)n4)c3)cc2)CC1 | 0.2 | – | 7.8 | > 100 | 0.1 | 475 | – | –
NCCCn1ccc2c(-c3ccnc(Nc4cccc(OC(F)(F)C(F)F)c4)n3)cccc21 | 5 | 0.18 | 0.5 | 0.53 | 0.35 | 2 | 4.4 | –
c1ccc(Nc2nccc(-c3cccnc3)n2)cc1 | > 10 | 10.5 | > 100 | 100 | 1.8 | > 500 | 39 | –
Cc1ccc(C(=O)Nc2cccc(Nc3nccc(-c4cccnc4)n3)c2)cc1 | 0.8 | – | > 100 | > 100 | 1 | > 500 | – | –
